Reference: US8858995B2, “Methods and compositions for controlled delivery of phytochemical agents” (priority 2008, dated 2014)
Like-named read-outs stand apart in the source and are kept apart here. Values belong to the molecule of their own block, whether it stands above or below them.

Legend:
[1] = extruded implants
[2] = Tissue curcuminoid levels after coated implants (UPLC); type: in vivo, A/J mice; settings: female, A/J, mouse
Procedure: Briefly, liver and brain tissues (500 and 400 mg, respectively) from each animal were homogenized in 3 ml PBS (pH 7.4) containing 200 μl of 0.5 M sodium acetate, and extracted with ethyl acetate. After evaporation of the pooled extracts, the residue was reconstituted in 100 μl acetonitrile and analyzed by UPLC using Shimadzu UPLC system (Kyoto, Japan), with a Shim-Pack XR-ODS II reverse phase column (Shimadzu; 150×3.0 mm i.d., 2.2 μm).

[3] = system: 17β-estradiol-induced mammary tumors; type: in vivo, ACI rats; settings: for animals that developed palpable tumors: control 100% after 26 wks
Text: Cancer chemoprevention approaches have been used to manipulate tumorigenesis and reduce the transformation of normal/pre-cancerous cells to malignancy. Many compounds that have worked in cell culture studies though have failed in animal models and clinical trials due to lack of bioavailability. Additionally, the high doses required to elicit biological response can be toxic. The following experiments were designed to test the hypothesis that the effective dose of phytochemical agents, administered systemically via implantation of a silastic implant incorporating the agents, can be reduced substantially compared with the traditional dietary route and were also designed to determine the effect of individual phytochemical agents on mammary carcinogenesis. The silastic implants used in the experiments described below were fabricated by filling silastic tubing with a desired agent. Although the silastic implants are not biodegradable like compositions disclosed herein comprising biocompatible polymeric matrices, the silastic implants provide proof of concept that a reduced dose of phytochemical agents administered systemically can be effective in inhibiting mammary carcinogenesis.
Initially, an experiment was performed by subcutaneously implanting individual phytochemical agents using a large number of animals per group (n=17-19). […] Two weeks later, all groups received 3 cm biocompatible silastic implants incorporating 27 mg of 17β-estradiol. Six months later, after all animals had developed mammary tumors, the animals were euthanized and the mammary tumors were counted and their size measured. […] However, 30-55% reductions were found in the tumor burden with all test agents (FIG. 23A) as measured by tumor volume, with ellagic acid resulting in the most significant reduction in tumor burden (55%). The foregoing results thus support the effectiveness of ellagic acid, a significant component in certain berries, as an exemplary phytochemical compound that can be administered via a biocompatible silastic implant to inhibit or reduce estrogen-induced ACI rat mammary carcinogenicity.
To further evaluate the effectiveness of ellagic acid in estrogen-induced mammary carcinogenicity and to determine whether the effective dose of ellagic acid administered systemically via a biocompatible silastic implant can be reduced substantially compared with the traditional dietary route, ellagic acid was administered either in the diet (400 ppm) or by subcutaneous implantation of a biocompatible silastic implant incorporating an effective amount of ellagic acid (27 mg/implant, 4 implants). […] All groups received diet and water ad libitum. The body weight and diet consumption were recorded weekly. The animals were palpated for mammary tumors, and were euthanized when the largest tumor reached >1 cm. The first tumor in the control group appeared after nearly 84 days. However, the first tumor appearance with ellagic acid implants or ellagic acid-supplemented diet was somewhat delayed by 2 and 3 weeks, respectively. The control group reached 100% tumor incidence after 26 wks, but only 75% or 69% of the animals developed palpable tumors in the groups that received ellagic acid by implants or diet, respectively. […] Similar reductions were also observed in the tumor multiplicity (4.00±0.63 and 4.80±0.4 tumors/rat with implant and diet, respectively versus 6.77±0.87 in the control group) (FIG. 24A).
The total amount of ellagic acid administered during the entire duration of the study by diet was 800 mg/rat while the subcutaneous implantation of the biocompatible silastic implant incorporating ellagic acid delivered only 1.48±0.87 mg per implant, as determined by HPLC measurement of the material left in implants recovered after termination.

DNA adducts in the liver = assay: Liver DNA adducts after a bolus dose of dibenzo[a,1]pyrene (32P-postlabeling); type: in vivo, Sprague-Dawley rats; settings: 2 cm PCL:cyclodextrin (9:1) matrix, 10% w/w; bolus dibenzo[a,1]pyrene; 5 days after carcinogen
Procedure: Eleven days later, the animals were treated with a bolus dose of dibenzo[a,1]pyrene. The animals were then euthanized 5 days after the carcinogen treatment and liver samples were collected.

[4] = In vitro release from coated (and extruded) polymeric implants; type: physicochemical
Procedure: To formulate the “coated” polymeric implants, blank P-80 implants (1.4 mm dia) were then prepared by dissolving P-80:F68 (9:1) in dichloromethane, followed by evaporation of the solvent in a Petri dish under hood and extrusion of the molten polymer through a silastic tubing mold, similar to the methodologies described herein above. […] For coating, one end of the blank implant (2.5-3.5 cm) was inserted into a silastic tube plug (6 mm long, 1.4 mm dia) while the other end of the plug was attached with a pipet tip. Coatings were then added by dipping the blank implant into the solution with intermittent drying with cool air using a commercial hair dryer and placing them under hood. […] The assembly was placed under hood overnight to remove the residual DCM, implants were excised in 1 or 2 cm lengths and stored in amber vials under argon at -20° C. until used. The rate of in vitro release for the implants was subsequently measured. […] The vials were placed in a water bath (Julabo S W 23, Seelback, Germany) at 37° C. with constant agitation at 110 rpm. The medium was changed every 24 h.

[5] = mouse, sc
Procedure: (§1) To assess the coated implants (i.e., where the compositions were in the form of coatings), in vivo studies were also performed. […] All groups of animals were also treated with dibenzo[a,I]pyrene (DBP) via polymeric implants (1-cm, 1.4 mm dia, 5% DBP load) at the same time. Implants were grafted subcutaneously, and animal were euthanized after 3 weeks. […] In both cases, animals were euthanized by CO2 asphyxiation and selected tissues (lung, liver and brain) were collected and stored at −80° C. until processing. Implants were also recovered, dried under vacuum and stored in amber vials under argon at 4° C. until analysis.
The supernatants were diluted with ethanol:DCM (80:20) and their concentrations were measured spectrophotometrically at maximal absorbance and the concentrations were calculated against standard curves of individual compounds.

DBP-DNA adducts = assay: Dibenzo[a,I]pyrene (DBP)-DNA adducts in lung (32P-postlabeling); type: in vivo, A/J mice; settings: two 1.5 cm coated implants; DBP implant; 3 weeks
Procedure: as §1
To analyze the formation of DNA adducts, DNA was isolated from lung tissue (200 mg) by treatment of the isolated crude nuclei with RNases and proteinase K, followed by extractions with phenol, phenol:Sevag and Sevag. DNA was recovered by ethanol precipitation and its concentration was measured spectrophotometrically considering 1 A260 equals 50 μg DNA. DNA adducts were analyzed by nuclease P1-mediated ^32P-postlabeling/TLC assay and expressed as adducts per 10^9 nucleotides.

[6] = system: human lung cancer A549 cell xenografts; assay: Human lung cancer xenograft inhibition by withaferin A; type: in vivo, athymic nude mice
Procedure: Additionally, to assess the effect of the implants on tumor xenografts, five- to six-week old female athymic nude mice (Harlan Laboratories, Indianapolis, Ind.) were acclimated for a week and then inoculated with human lung cancer (A549) cells (3×10^6 cells) in matrigel. […] Animals were weighed and the tumors were measured by a digital caliper weekly. At the end of 6 to 8 weeks, animals were euthanized by CO2 asphyxiation, tumors were collected and measured.

breast cancer incidence = settings: pre-menopausal women with a family history of breast cancer, high consumption; cited from earlier work

Molecule: CC(=O)OC(C)(C)/C=C/C(=O)[C@](C)(O)[C@H]1[C@H](O)C[C@@]2(C)[C@@H]3CC=C4[C@H](C[C@H](O)C(=O)C4(C)C)[C@]3(C)C(=O)C[C@]12C [cucurbitacin B]
- burst release and local toxicity [1]: burst release phenomenon and sign of local toxicity

- concentration at 21 days ([2]; in vivo): 1 ng/g
Molecule: COc1cc(/C=C/C(O)=C/C(=O)/C=C/c2ccc(O)cc2)ccc1O [curcuminoid II, demethoxycurcumin]

- concentration at 21 days ([2]; brain, subcutaneous, 2 1.5 cm implants (60 mg/implant, approximately 10% drug load), delivered individually by implant, 21 days, read-out: level in brain tissue): 6.4 ng/g
- concentration at 21 days ([2]; liver, subcutaneous, 2 1.5 cm implants (60 mg/implant, approximately 10% drug load), delivered individually, two 1.5-cm implants, 21 days, read-out: level in the liver): 5 to 6 ng/g
Molecule: O=C(/C=C/c1ccc(O)cc1)CC(=O)/C=C/c1ccc(O)cc1 [curcuminoid III, bisdemethoxycurcumin]

- amount delivered per implant over the study ([3]; rat, in vivo): 1.48±0.87 mg per implant
Molecule: O=c1oc2c(O)c(O)cc3c(=O)oc4c(O)c(O)cc1c4c23 [ellagic acid]
- reduction in tumor burden (tumor volume) ([3]; 3 cm silastic implant, 27 mg agent, six months): 55%
- tumor multiplicity ([3]; diet): 4.80±0.4 tumors/rat
- delay of first tumor appearance ([3]; diet 400 ppm): 3 weeks
- animals that developed palpable tumors ([3]; diet 400 ppm): 69%
- tumor burden ([3]; dietary 400 ppm): 269±61 mm^3
- tumor multiplicity ([3]; implant): 4.00±0.63 tumors/rat
- tumor burden ([3]; implant (slow release)): 454±105 mm^3
- animals that developed palpable tumors ([3]; implants): 75%
- delay of first tumor appearance ([3]; silastic implants, 27 mg/implant, 4 implants): 2 weeks

- release in PBS alone ([4]; 37° C., no serum): essentially no release
- cumulative release after 60 days ([4]; in vitro): ~27%
- cumulative release over 3 weeks (21 days) ([4]; in vitro, PBS with 10% bovine serum): about 12%
- total release in vivo at the end of 3 weeks [5]: 18.6%
Molecule: Cc1c(-c2cnccn2)ssc1=S [oltipraz]
- DNA adducts in the liver (DNA adducts in the liver): reduced the amount of B[a]P-induced DNA adducts
- release kinetics ([4]; PBS with 10% bovine serum, 60 days): essentially zero-order kinetics
- lung DBP-DNA adduct levels (DBP-DNA adducts): reduction was statistically significant

Molecule: CC1=C(CO)C(=O)O[C@@H]([C@@H](C)[C@H]2CC[C@H]3[C@@H]4C[C@H]5O[C@]56[C@@H](O)C=CC(=O)[C@]6(C)[C@H]4CC[C@]23C)C1 [withaferin A]
- lung DBP-DNA adduct levels (DBP-DNA adducts): reduction in the DNA adduct levels
- total dose administered via the implants ([6]; calculated from residual amount in the implants, versus 5.6 mg i.p.): 2.69 mg
- reduction in the growth of the tumor ([6]; coated implants, two 1.5-cm, 5% drug load): 51%
- body weight versus sham ([6]; end of the 8-week study, implants): essentially the same body weight
- reduction of the tumor ([6]; intraperitoneally 4 mg/kg): no reduction
- inhibition of the tumor ([6]; intraperitoneally 8 mg/kg on alternate days): 53%
- burst release and local toxicity [1]: burst release phenomenon and sign of local toxicity

Molecule: vitamin E
- reduction in breast cancer incidence (breast cancer incidence): 43%
